What was measured:
[1] = target: T1, Protein kinase C alpha type (Homo sapiens, UniProt P17252); experiment: Displacement of phorbol 12,13-dibutyrate (PDBU) from recombinant Protein kinase C alpha
[2] = target: T1, Protein kinase C alpha type; experiment: Displacement of phorbol 12,13-dibutyrate (PDBU) from recombinant Protein kinase C alpha (Inactive at 300 nM)

Ki [1]	Ki [2]	SMILES
127 µM		CC(C)[C@H]1C(=O)N[C@H](CO)c2ccccc2N1C
	Not Active	CC(C)[C@H]1C(=O)NC(CO)c2ccccc2N1C (single isomer, unassigned)
21 µM		CCCCCCCCC#Cc1ccc2c(c1)[C@@H](CO)NC(=O)[C@H](C(C)C)N2C
